Test results taken from article PMC10298530, “Synthesis and Anticancer Activity of A-Ring-Modified Derivatives of Dihydrobetulin” (International Journal of Molecular Sciences, 2023).

How the values were obtained:
[1] = test system: RD TE32; assay: MTT cell viability assay, RD TE32; assay type: cell-based, human; conditions: Homo sapiens; Table S1, RD TE32; read-out: IC50 (mean ± SD)
Description: (§1) Blokhin National Medical Research Center of Oncology (the Ministry of Health of the Russian Federation, Moscow).

[2] = test system: HEK293; assay: MTT cell viability assay, HEK293; assay type: cell-based; conditions: Homo sapiens; Table S1, HEK293; read-out: IC50 (mean ± SD)
Description: as §1

[3] = test system: HBL-100/Dox; assay: MTT cell viability assay, HBL-100/Dox; assay type: cell-based, human; conditions: Homo sapiens, HBL-100; read-out: IC50 (mean ± SD)
Procedure: (§2) The cells were cultured in a humidified CO2 incubator (model 460-CE; Thermo Fisher Scientific, Waltham, MA, USA) at +37 °C and 5% CO2.
(§3) The percentage of the viable cells was calculated according to the following equation: cell viability (%) = 100 × (mean absorbance in the treatment group/mean absorbance in the control group). The results were expressed pictorially using Prism 6.0 (GraphPad Software, Boston, MA, USA).

[4] = test system: PC-3; assay: MTT cell viability assay, PC-3; assay type: cell-based, human; conditions: Homo sapiens; Table S1, PC-3; read-out: IC50 (mean ± SD)
Description: as §1

[5] = test system: HCT116; assay: MTT cell viability assay, HCT116; assay type: cell-based, human; conditions: Homo sapiens, HCT-116; Table S1, HCT116; read-out: IC50 (mean ± SD)
Description: as §1

[6] = test system: HBL-100; assay: MTT cell viability assay, HBL-100; assay type: cell-based, human; conditions: Homo sapiens; Table S1, HBL-100; read-out: IC50 (mean ± SD)
Procedure: as §2, §3

[7] = test system: MS; assay: MTT cell viability assay, MS; assay type: cell-based, human; conditions: Homo sapiens; Table S1, MS; read-out: IC50 (mean ± SD);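 note: MS is a melanocyte cell line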
Description: as §1

[8] = test system: A549; assay: MTT cell viability assay, A549; assay type: cell-based, human; conditions: Homo sapiens; Table S1, A549; read-out: IC50 (mean ± SD)
Description: as §1

[9] = test system: HEpG2; assay: MTT cell viability assay, HEpG2; assay type: cell-based, human; conditions: Homo sapiens; Table S1, HEpG2; read-out: IC50 (mean ± SD)
Description: as §1

[10] = test system: MCF-7; assay: MTT cell viability assay, MCF-7; assay type: cell-based, human; conditions: Homo sapiens, MCF7; Table S1, MCF-7; read-out: IC50 (mean ± SD)
Description: as §1

CC(C)C1CC[C@]2(CO)CC[C@]3(C)C(CCC4[C@@]5(C)C[C@@H](C#N)C[C@H](O)C5CC[C@]43C)C12 (stereo partly drawn) [compound 18, 2-Cyano-4β,28-dihydroxy-3,4-seco-3,23-dinor-2,24-cyclolupane]
> 200 µM: IC50 [1] | IC50 [3] | IC50 [5]
205.7 °C: melting point
> 100 µM: IC50 [2] | IC50 [4] | IC50 [6] | IC50 [7] | IC50 [8] | IC50 [9] | IC50 [10]

C=C1C=C(C#N)C[C@@]2(C)C1CC[C@]1(C)C2CCC2C3C(C(C)C)CC[C@]3(CO)CC[C@]21C (some centres unmarked) [compound 8, 2-Cyano-28-hydroxy-3,4-seco-3-nor-2,24-cyclolup-2(24),4(23)-diene]
196.1 °C: melting point
> 200 µM: IC50 [1] | IC50 [3] | IC50 [5]
> 100 µM: IC50 [2] | IC50 [4] | IC50 [6] | IC50 [7] | IC50 [8] | IC50 [9] | IC50 [10]

COC(=O)[C@]12CCC(C(C)C)C1C1CCC3[C@@]4(C)CC(C#N)=C(C)C4CC[C@@]3(C)[C@]1(C)CC2 (some centres unmarked) [compound 23, 2-Cyano-3,4-seco-3,23-dinor-2,4-cyclolup-2(4)-en-28-oic acid methyl ester]
> 200 µM: IC50 [4] | IC50 [8] | IC50 [9]
70.2 ± 3.09 µM: IC50 [10]
168.5 °C: melting point
> 100 µM: IC50 [1] | IC50 [2] | IC50 [3] | IC50 [5] | IC50 [6] | IC50 [7]

COC(=O)[C@]12CCC(C(C)C)C1C1CCC3[C@@](C)(CCC#N)C(C(C)=O)CC[C@@]3(C)[C@]1(C)CC2 (some centres unmarked) [compound 21, 2-Cyano-4-oxo-3,4-seco-3,23-dinorlupan-28-oic acid methyl ester]
> 100 µM: IC50 [1] | IC50 [2] | IC50 [4] | IC50 [5] | IC50 [6] | IC50 [7] | IC50 [8] | IC50 [9]
97.5 ± 4.21 µM: IC50 [10]
> 200 µM: IC50 [3]
177.2 °C: melting point

CC(C)C1CC[C@]2(CO)CC[C@]3(C)C(CCC4[C@@]5(C)C[C@@H](C#N)CC(=O)C5CC[C@]43C)C12 (some centres unmarked) [compound 16, 2-Cyano-28-hydroxy-4-oxo-3,4-seco-3,23-dinor-2,24-cyclolupane]
> 200 µM: IC50 [3] | IC50 [5]
> 100 µM: IC50 [1] | IC50 [2] | IC50 [4] | IC50 [6] | IC50 [7] | IC50 [8] | IC50 [9] | IC50 [10]
166.6 °C: melting point

CC(C)C1CC[C@]2(COC(=O)c3ccccc3)CC[C@]3(C)C(CCC4[C@@](C)(CCC#N)C(C(=O)CBr)CC[C@]43C)C12 (some centres unmarked) [compound 28, 28-Benzoyloxy-24-bromo-2-cyano-4-oxo-3,4-seco-3,23-dinorlupane]
> 200 µM: IC50 [3]
86.1 ± 10.1 µM: IC50 [10]
91.6 °C: melting point
> 100 µM: IC50 [1] | IC50 [2] | IC50 [4] | IC50 [5] | IC50 [6] | IC50 [7] | IC50 [8] | IC50 [9]

CC1=C(C#N)C[C@@]2(C)C1CC[C@]1(C)C2CCC2C3C(C(C)C)CC[C@]3(CO)CC[C@]21C (some centres unmarked) [compound 22, 2-Cyano-28-hydroxy-3,4-seco-3,23-dinor-2,4-cyclolup-2(4)-ene]
184.2 °C: melting point
84.7 ± 3.68 µM: IC50 [1]
> 200 µM: IC50 [8]
89.3 ± 3.01 µM: IC50 [10]
> 100 µM: IC50 [2] | IC50 [3] | IC50 [6] | IC50 [7] | IC50 [9]
74.2 ± 2.56 µM: IC50 [5]
36.5 ± 1.31 µM: IC50 [4]

C=C(CBr)C1CC[C@]2(C)C(CCC3C4C(C(C)C)CC[C@]4(C(=O)OC)CC[C@]32C)[C@@]1(C)CCC#N (some centres unmarked) [compound 7, 24-Bromo-2-cyano-3,4-seco-3-norlup-4(23)-en-28-oic acid methyl ester]
72.7 °C: melting point
> 200 µM: IC50 [1] | IC50 [3] | IC50 [5] | IC50 [6]
> 100 µM: IC50 [2] | IC50 [4] | IC50 [7] | IC50 [8] | IC50 [9] | IC50 [10]

C=C1C2CC[C@]3(C)C(CCC4C5C(C(C)C)CC[C@]5(CO)CC[C@]43C)[C@@]2(C)C[C@@H](C#N)[C@@H]1O (stereo partly drawn) [compound 9, 2-Cyano-24β,28-dihydroxy-3,4-seco-3-nor-2,24-cyclolup-4(23)-ene]
> 100 µM: IC50 [1] | IC50 [2] | IC50 [3] | IC50 [4] | IC50 [5] | IC50 [7] | IC50 [8] | IC50 [9]
170.1 °C: melting point
> 200 µM: IC50 [6] | IC50 [10]

CC(C)C1CC[C@]2(COC(=O)c3ccccc3)CC[C@]3(C)C(CCC4[C@@](C)(CCC#N)C(C(=O)C(Br)Br)CC[C@]43C)C12 (some centres unmarked) [compound 29, 28-Benzoyloxy-2-cyano-24,24-dibromo-4-oxo-3,4-seco-3,23-dinorlupane]
49 ± 5.33 µM: IC50 [10]
73.2 ± 5.24 µM: IC50 [1]
> 100 µM: IC50 [2] | IC50 [4] | IC50 [6] | IC50 [7] | IC50 [8] | IC50 [9]
> 200 µM: IC50 [3] | IC50 [5]
107.7 °C: melting point

C=C1C[C@H](C#N)C[C@@]2(C)C1CC[C@]1(C)C2CCC2C3C(C(C)C)CC[C@]3(C(=O)OC)CC[C@]21C (some centres unmarked) [compound 13, 2-Cyano-3,4-seco-3-nor-2,24-cyclolup-4(23)-en-28-oic acid methyl ester]
> 200 µM: IC50 [2] | IC50 [3]
> 100 µM: IC50 [1] | IC50 [4] | IC50 [5] | IC50 [6] | IC50 [7] | IC50 [8] | IC50 [9] | IC50 [10]
177.7 °C: melting point

CC(=O)C1CC[C@]2(C)C(CCC3C4C(C(C)C)CC[C@]4(COC(=O)c4ccccc4)CC[C@]32C)[C@@]1(C)CCC#N (some centres unmarked) [compound 20, 28-Benzoyloxy-2-cyano-4-oxo-3,4-seco-3,23-dinorlupane]
185.8 °C: melting point
> 200 µM: IC50 [3] | IC50 [6]
> 100 µM: IC50 [1] | IC50 [2] | IC50 [4] | IC50 [5] | IC50 [7] | IC50 [8] | IC50 [9] | IC50 [10]

COC(=O)[C@]12CCC(C(C)C)C1C1CCC3[C@@]4(C)CC(C#N)=CC(=O)C4CC[C@@]3(C)[C@]1(C)CC2 (some centres unmarked) [compound 15, 2-Cyano-4-oxo-3,4-seco-3,23-dinor-2,24-cyclolup-2(24)-en-28-oic acid methyl ester]
> 100 µM: IC50 [1] | IC50 [2] | IC50 [3] | IC50 [4] | IC50 [5] | IC50 [6] | IC50 [7] | IC50 [8] | IC50 [9] | IC50 [10]
69.7 °C: melting point

C=C(C=O)C1CC[C@]2(C)C(CCC3C4C(C(C)C)CC[C@]4(COC(=O)c4ccccc4)CC[C@]32C)[C@@]1(C)CCC#N (some centres unmarked) [compound 4, 28-Benzoyloxy-2-cyano-3,4-seco-3-norlup-4(23)-en-24-al]
> 100 µM: IC50 [1] | IC50 [2] | IC50 [3] | IC50 [4] | IC50 [6] | IC50 [7] | IC50 [8] | IC50 [9]
> 200 µM: IC50 [5] | IC50 [10]
176.5 °C: melting point

C=C(C=O)C1CC[C@]2(C)C(CCC3C4C(C(C)C)CC[C@]4(C(=O)OC)CC[C@]32C)[C@@]1(C)CCC#N (some centres unmarked) [compound 5, 2-Cyano-3,4-seco-3-norlup-4(23)-en-24-al-28-oic acid methyl ester]
> 200 µM: IC50 [2] | IC50 [5] | IC50 [6] | IC50 [10]
> 100 µM: IC50 [1] | IC50 [3] | IC50 [4] | IC50 [7] | IC50 [8] | IC50 [9]
97.3 °C: melting point

C=C1C2CC[C@]3(C)C(CCC4C5C(C(C)C)CC[C@]5(C(=O)OC)CC[C@]43C)[C@@]2(C)C[C@@H](C#N)[C@@H]1O (stereo partly drawn) [compound 11, 2-Cyano-24β-hydroxy-3,4-seco-3-nor-2,24-cyclolup-4(23)-en-28-oic acid methyl ester]
133.9 °C: melting point
> 200 µM: IC50 [1] | IC50 [2] | IC50 [3] | IC50 [5]
> 100 µM: IC50 [4] | IC50 [7] | IC50 [8] | IC50 [9] | IC50 [10]
73.3 ± 1.51 µM: IC50 [6]
